Test results: patent US10857105B2, “Compounds and compositions for intracellular delivery of therapeutic agents” (ModernaTX, Inc., priority 2017, dated 2020)

What was measured:
[1] = Encapsulation efficiency of RNA in nanoparticle compositions (RIBOGREEN assay); type: physicochemical; conditions: Table 1A; lipid:DSPC:cholesterol:PEG-DMG 50:10:38.5:1.5 mol %
Procedure, shortened: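 Lipid nanoparticles (ionisable lipid:DSPC:cholesterol:PEG-DMG 50:10:38.5:1.5 mol %) carrying N1-methylpseudouridine luciferase or hEPO mRNA diluted to about 5 μg/mL in TE, pH 7.5, with or without 2% Triton X-100, 15 min at 37° C. RiboGreen fluorescence (ex ~480, em ~520 nm) blank-subtracted; free RNA = intact/disrupted signal.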

modified luciferase = test: Luciferase expression in liver, lung, spleen and femur 6 hours after intravenous administration to mice; type: in vivo; conditions: 6 hours after intravenous 0.5 mpk, mice
Procedure, shortened: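 Mice (n=3) got a single 0.5 mpk IV dose of each nanoparticle composition, with MC3 and PBS controls alongside. Organ luminescence flux was read 6 h post-dose.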

IL-6, IP-10 = test: Cytokine induction (IL-6, IP-10) in mice 6 hours after intravenous administration; type: in vivo; design: unit not given here; conditions: intravenous 0.5 mpk
Procedure, shortened: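 IL-6 and IP-10 concentrations determined 6 hours after a single intravenous 0.5 mpk dose of lipid nanoparticle formulation in mice, with MC3 and PBS as comparators.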

CD-1 mice = test: Luciferase expression after intravenous delivery of luciferase mRNA LNPs (bioluminescent imaging); type: in vivo; conditions: intravenous 0.5 mg/kg mRNA dose
Protocol: Whole body and ex vivo organ bioluminescent imaging of mice: CD-1 mice were injected 15 minutes prior to the imaging timepoint intraperitoneally (IP) with 200 μL Xenolight D-luciferin K+ salt, diluted in PBS just prior to use to a concentration of 15 mg/mL. Ex vivo imaging of organs was completed, within 25 minutes of luciferin administration. All images were quantified by region of interest for total flux.
[…] […] (See Semple, S.C. et al., Nature Biotech. 2010. 28, 172-176, Jayaraman, M., et al. Angew. Chem. Int. Ed. 2012, 51, 8529-8533, the entire contents of each of which are incorporated by reference herein in their entireties). To evaluate the efficiency of the new amino lipids, LNPs using the novel compounds were tested in vivo in mice using luciferase mRNA as a reporter. An MC3 LNP was included as a control in each experiment, enabling the comparison of LNPs from experiment to experiment. Measured luciferase activity also enabled the determination of protein bio-distribution.

[2] = Chemical stability of lipids in ethanol at room temperature and 37° C. (lipid purity); type: physicochemical
Protocol: Ester linkages were previously reported to trigger metabolism by esterases in vivo. (See Fukami, T. et al. Drug Metab. Pharmacokinet. 2012, 27, 466-477, the content of which is incorporated by reference herein in its entirety). […] (See Maier M. A., Mol. Ther. 2013, 21, 1570-1578, the content of which is incorporated herein in its entirety) First, the chemical stability of the lipids was evaluated by measuring ethanol stability at room temperature and 37° C. (Table 39). […] LNPs formed with compound 138 were larger, with a surface pKa>7. […] Removal of one ester function (compound 136) afforded LNPs with improved physiochemical characteristics and lower LNP surface pKa.

[3] = Particle size and polydispersity index of nanoparticle compositions (Zetasizer Nano ZS); type: physicochemical
Procedure, shortened: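 Formulations of ionizable lipid, DSPC, cholesterol and PEG-DMG (50:10:38.5:1.5 mol %) carrying Luc or hEPO mRNA with all uridines as N1-methyl pseudouridine. Dynamic light scattering in 1×PBS gave particle size and polydispersity; zeta potential read in 15 mM PBS.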

hEPO mRNA = test: hEPO expression after intravenous administration to rats; type: in vivo, rat; conditions: rats, 6 hours; for Lipid/MC3 hEPO conc. ratio, 0.2 mpk: intravenous 0.2 mpk; for Lipid/MC3 hEPO conc. ratio, 2 mpk: intravenous 2 mpk
Protocol: The expression of hEPO and cytokine induction in rats intravenously administered a nanoparticle composition at a dose of 2.0 mpk was measured at 6 h.
(§1) The expression of hEPO in rats intravenously administered a nanoparticle composition at a dose of 0.2 mpk or 2.0 mpk was measured at 6 hours. Table 16 summarize the ratio of hEPO expression levels using various nanoparticle compositions as compared to the hEPO expression level using MC3 formulation and the lipid levels in the liver measured 48 hours after administration, as described above. Tables 17 and 18 summarize the lipid levels in the liver and spleen measured 48 hours after administration of Compounds 28, 33, 53, and 54. Liver and spleen levels represent the average values calculated for 3 rats in each group. As is shown in Tables 17 and 18, less than 10% of Compounds 28, 33, 53, and 54 remained in the liver after 48 hours, while greater than 60% of MC3 remained.
(§2) Table 19A summarizes the hEPO expression, IP-10 induction, liver and spleen levels, and alanine aminotransferase (ALT) and aspartate aminotransferase (AST) measured upon intravenous administration of formulations including Compounds 48, 49, and 50 to rat at 0.2 and 2 mpk and hEPO mRNA. hEPO concentrations were measured 6 hours after administration, while cytokine induction and liver and spleen levels were measured 48 hours after administration. hEPO and IP-10 concentrations are presented in pg/ml, while liver levels are provided in ng/g. ALT and AST levels are presented in international units.
The expression of hEPO induced by intravenous administration to rats of nanoparticle compositions at various doses was measured at 2, 4, 6, 8, 24, and 48 hour time points. FIGS. 3-6 respectively summarize the hEPO expression measured upon intravenous administration of formulations including Compounds 26, 18, 25, and MC3 to rat at various doses. The lipid levels of Compound 26 in the liver after 48 hours were about 19%.
(§3) The expression of hEPO and lipid levels in the liver and spleen in rats intravenously administered a nanoparticle composition at a dose of 0.2 mpk was measured at various time points. Compounds 18 and 25 were selected for comparison with MC3. Lipids were formulated according to the standard MC3 formulation described above. Rats were administered intravenously a single 0.2 mpk dose and expression monitored at 0.25, 0.5, 1, 2, 4, 8, 24, and 48 hours after administration.

[4] = Residual lipid levels in rat liver and spleen (UPLC-MS); type: in vivo; conditions: rats, 2 mpk, 48 h; assuming 300 g rat and 15 g liver
Protocol: At 48 h liver tissue was harvested for lipid quantification. To pre-weighed tissues, Milli-Q water was added (900 μL water per 100 mg tissue). Tissues were homogenized using an Omni probe homogenizer until uniform. 50 μL of samples and matrix calibration standards were aliquoted into a 96-well plate. 50 μL of blank matrix for matrix blanks and control blanks were aliquoted. 400 μL IS spiking solution were manually added to all samples except matrix blanks. 400 μL of 50:50 ACN:IPA were manually added to matrix-blanks. The plate was covered and the samples vortexed and centrifuged for 5 minutes at >3000 rpm. 200 μL of the samples were transferred into a clean 96-well plate for analysis. Samples were analyzed on a Waters Acquity UPLC using a Higgins Analytical Clipeus C8 column ([…], 30×2.1 mm) and a gradient of either 70-95% or 60-95% (Mobile Phase A: 5 mM ammonium formate in 50:50:1 H2O:MeOH:formic acid; Mobile Phase B: 5 mM ammonium formate in 100:1 MeOH:formic acid) over 1.3 min at […] (column temperature 55° C.). Detection was based on electrospray ionization (ESI) in positive mode using a Sciex API5500 Mass Spectrometer.
as §1, §2, §3

[5] = Table 1A, lipid:DSPC:cholesterol:PEG-DMG 50:10:38.5:1.5 mol %

Row | Structure (SMILES) | EE [1] [%] | Total Flux, Femur (modified luciferase) | Total Flux, Liver (modified luciferase) | Total Flux, Lung (modified luciferase) | Total Flux, Spleen (modified luciferase) | Cytokine induction, IL-6 (IL-6, IP-10) | Cytokine induction, IP-10 (IL-6, IP-10) | luciferase activity/expression compared to MC3 LNP control (words) (CD-1 mice; 0.5 mg/kg) | luciferase activity/expression compared to MC3 LNP control (words) (CD-1 mice; listed as compound 14, 0.5 mg/kg) | Lipid Purity, t = 96 h, 25° C. [2] [%] | Lipid Purity, t = 96 h, 37° C. [2] [%] | Lipid Purity, t = 0 [2] [%] | Size [3, 5] [nm] | Size ([3]; Table 1D, compositions for subcutaneous administration, # formulated with hEPO mRNA) [nm] | Lipid/MC3 hEPO conc. ratio, 0.2 mpk (hEPO mRNA) | Lipid/MC3 hEPO conc. ratio, 2 mpk (hEPO mRNA) | % Lipid Remaining in liver, 48 h, 2 mpk [4] [%] | luciferase activity/expression compared to MC3 LNP control (words) (CD-1 mice) | localization of protein expression (whole body imaging) (CD-1 mice)
1 | CCCCCCCCCOC(=O)CCCCCCCN(CCCCCCCC(=O)OC(CCCCCCCC)CCCCCCCC)CCN(C)C [Compound 14, Heptadecan-9-yl 8-((2-(dimethylamino)ethyl)(8-(nonyloxy)-8-oxooctyl)amino)octanoate] | 95.24 | 4.91E+06 | 1.91E+08 | 4.74E+06 | 1.92E+08 | 75.29 | 621.49 | complete loss of delivery efficiency | low levels of Luciferase expression | 92.07 | 91.90 | 92.08 |  |  |  |  |  |  | 
2 | CCCCCCCCC(CC)OC(=O)CCCCCCCN(CCO)CCCCCCCC(=O)OC(CCCCCCCC)CCCCCCCC (stereo not shown) [Compound 49, heptadecan-9-yl 8-((2-hydroxyethyl)(8-oxo-8-(undecan-3-yloxy)octyl)amino)octanoate] |  |  | 5.68E+09 | 2.52E+07 | 1.87E+08 |  |  |  |  |  |  |  | 88 | 74.0 | 4.13 | 3.28 | 12.6 |  | 
3 | CCCCCCCCC(CCC)OC(=O)CCCCCCCN(CCO)CCCCCCCC(=O)OC(CCCCCCCC)CCCCCCCC (stereo not shown) [Compound 50, dodecan-4-yl 8-((8-(heptadecan-9-yloxy)-8-oxooctyl)(2-hydroxyethyl)amino)octanoate] |  |  | 6.30E+09 | 2.81E+07 | 1.14E+08 |  |  |  |  |  |  |  | 68.4 |  | 3.41 | 3.03 | 15.9 |  | 
4 | CCCCCCCCC(CCCCCCCC)OC(=O)CCCCCCCN(CCO)CCCCCCCC(=O)OC(CCCCCCCC)CCCCCCCC [compound 29, Di(heptadecan-9-yl) 8,8′-((2-hydroxyethyl)azanediyl)dioctanoate] | 96.99 | 9.56E+05 | 5.20E+08 | 9.83E+05 | 5.99E+06 | 69.54 | 1362.81 |  |  | 97.67 | 98.10 | 97.017 |  |  |  |  |  | lower luciferase activity | 
5 | CCCCCCCCCOC(=O)CCCCCCCN(CCCCCCCC(=O)OC(CCCCCCCC)CCCCCCCC)CCCNC(=O)C(C)(C)COC [compound 281, Heptadecan-9-yl 8-((3-(3-methoxy-2,2-dimethylpropanamido)propyl)(8-(nonyloxy)-8-oxooctyl)amino)octanoate] |  |  |  |  |  |  |  |  |  | 95.15 | 96.47 | 95.17 |  |  |  |  |  | two-fold lower | majority of protein expression was localized in the liver
